assay: Visual examination for brown precipitate formation upon storage of dilute aqueous CMI/MI solutions; assay type: physicochemical; conditions: storage at 55 °C, 30 ppm copper ion
Experimental: An advantage of the compositions of the present invention is that they are both physically and chemically stable as prepared and upon storage. […] By “physically stable” we mean that the compositions are fluid and show no visible brown precipitate formation after storage for at least 4 weeks at 55° C., and preferably for at least 8 weeks at 55° C. By “chemically stable” is meant that the 3-isothiazolone, particularly the CMI compound, retains at least 60%, preferably at least 70% and more preferably at least 80%, of its original concentration in the dilute solution composition after storage for at least 4 weeks at 55° C., and preferably for at least 8 weeks at 55° C.
Some embodiments of the invention are described in detail in the following Examples. All ratios, parts and percentages are expressed by weight unless otherwise specified, and all reagents used are of good commercial quality unless otherwise specified. The level of copper is reported in ppm as the level of cupric ion. Samples were considered stable when the samples were free of brown precipitate after being stored at least 4 weeks, and preferably at least 8 weeks, at 55° C. Abbreviations used in the Examples and Tables are listed below with the corresponding descriptions.
The samples tested were prepared by adding known amounts of 3-isothiazolone, copper sulfate pentahydrate, water-soluble organic solvent and DI water to a 100-ml glass jar equipped with a magnetic stir bar. The 3-isothiazolone used was an approximate 3:1 (weight/weight) mixture of CMI and MI (98% purity). Ingredients were combined in a manner to provide test solutions containing 1.5% of the 3-isothiazolone (1.53 g per 100 g total solution), 30 ppm copper ion (0.0118 g copper sulfate pentahydrate per 100 g total solution) and various concentrations of water-soluble organic solvent (0 g, 1 g, 5 g, 10 g, 25 g and 50 g per 100 g total solution, corresponding to 0%, 1%, 5%, 10%, 25% or 50% solvent, respectively); the remainder of the solution (to 100 g total) was made up with DI water. Each sample was stirred until all solids were dissolved; portions (approximately 10 g) were then transferred to 20-ml glass vials and stored at room temperature or in an oven at 55° C. The samples were visually examined at various time points to determine the formation of brown precipitate and analyzed by HPLC/UV detection to determine the amount of CMI remaining; in all cases the amount of remaining MI was unchanged (100% of original value).

Row | SMILES | stabilizing effect of the solvent regarding prevention of brown precipitate formation (in words)
1 | CCOC(C)=O [ethyl acetate, Ethyl Acetate] | effective stabilizing solvents at use levels above 1%
2 | CCO [ethanol, Ethanol] | effective stabilizing solvents at use levels above 1%
3 | CC(O)CO (stereo not shown) [PG, Propylene Glycol (1,2-Propanediol)] | effective stabilizing solvent above levels of 1%
4 | OCCCCCO [1,5-pentanediol, 1,5-Pentandiol (Pentamethylene Glycol)] | effective stabilizing solvents at use levels above 1%
